Laboratory results: patent publication US6407248B1, “α-unsaturated amines, their production and use” (Takeda Chemical Industries, Ltd., priority 1987, dated 2002)

The molecules below were run on Brown Planthoppers (Nilaparvata lugens) (assay: Effect against brown planthoppers (foliar spray on rice seedlings)). Details: Nilaparvata lugens, foliar, 168 h, read-out: % Mortality after 7 days.
Type: in vivo
Description: Effect Against Brown Planthoppers (Nilaparvata lugens)
An emulsifiable concentrate of the compound of the invention, prepared in the same manner as Example 112 below, was diluted with water to a concentration of 500 ppm and sprayed over the stems and leaves of rice seedlings in the 2-leaf stage at the rate of 10 ml per paper pot. Water was put in test tubes and the treated rice seedlings were placed therein. Then, 10 brown planthopper larvae were released in each tube, which was then capped with an aluminum cap. The test tubes were maintained in an incubator at 25° C. and the dead insects were counted 7 days after release. The % mortality was calculated using the following formula. [formula]

Structure (SMILES) | mortality at 500 µg/mL
CNC(=C[N+](=O)[O-])N(C)Cc1ccc(Br)nc1 [Compound 100, 1-[N-(6-Bromo-3-pyridylmethyl)-N-methyl]amino-1-methylamino-2-nitroethylene] | 100%
CN(C=O)C(=C[N+](=O)[O-])N(C)Cc1ccc(Br)nc1 [Compound 125, 1-[N-(6-Bromo-3-pyridylmethyl)-N-methyl]amino-1-(N-formyl-N-methyl)amino-2-nitroethylene] | 100%
CNC(=C[N+](=O)[O-])N(Cc1ccc(Cl)nc1)CC(F)(F)F [Compound 131, 1-[N-(6-Chloro-3-pyridylmethyl)-N-(2,2,2-trifluoroethyl)]amino-1-methylamino-2-nitroethylene] | 100%
O=[N+]([O-])C=C(NCc1cnc(Cl)s1)NCc1cnc(Cl)s1 [Compound 105, 1,1-bis(2-chloro-5-thiazolylmethyl)amino-2-nitroethylene] | 100%
CNC(=C[N+](=O)[O-])NCc1cnc(Cl)s1 [Compound 106, 1-(2-Chloro-5-thiazolylmethyl)amino-1-methylamino-2-nitroethylene] | 100%
CNC(=C[N+](=O)[O-])N(C=O)Cc1cnc(Cl)s1 [Compound 124, 1-[N-(2-chloro-5-thiazolylmethyl)-N-formyl]amino-1-methylamino-2-nitroethylene] | 100%
O=[N+]([O-])C=C(NCc1ccc(Cl)nc1)NCc1ccc(Cl)nc1 [Compound 89, 1,1-bis(6-Chloro-3-pyridylmethyl)amino-2-nitro-ethylene] | 100%
CNC(=C[N+](=O)[O-])NCc1cccnc1 [Compound 3, 1-Methylamino-1-(3-pyridylmethyl)amino-2-nitroethylene] | 100%
CNC(NCc1ccc(Cl)nc1)=C(C(=S)NS(C)(=O)=O)[N+](=O)[O-] [Compound 117] | 100%
CCN(Cc1cnc(Cl)s1)C(=C[N+](=O)[O-])NC [Compound 103, 1-[N-(2-Chloro-5-thiazolylmethyl)-N-ethyl]amino-1-methylamino-2-nitroethylene] | 100%
CN(C)C(=C[N+](=O)[O-])NCc1cccnc1 [Compound 19, 1-Dimethylamino-1-(3-pyridylmethyl)amino-2-nitroethylene] | 100%
CN(C)NC(=C[N+](=O)[O-])NCc1ccc(Cl)nc1 [Compound 52, 1-(6-Chloro-3-pyridylmethyl)amino-1-(2,2-dimethyl-1-hydrazino)-2-nitroethylene] | 100%
CCN(Cc1ccc(F)nc1)C(=C[N+](=O)[O-])NC [Compound 99, 1-[N-Ethyl-N-(6-fluoro-3-pyridylmethyl)]amino-1-methylamino-2-nitroethylene] | 100%
CCN(C)C(=C[N+](=O)[O-])NCc1ccc(Cl)nc1 [Compound 50, 1-(6-Chloro-3-pyridylmethyl)amino-1-(N-ethyl-N-methyl)amino-2-nitroethylene] | 100%
CCCN(Cc1ccc(Cl)nc1)C(=C[N+](=O)[O-])NC [Compound 76, 1-[N-(6-Chloro-3-pyridylmethyl)-N-n-propyl]amino-1-methylamino-2-nitroethylene] | 100%
CNC(=C[N+](=O)[O-])NCc1ccc(Br)nc1 [Compound 118, 1-N-(6-Bromo-3-pyridylmethyl)amino-1-methylamino-2-nitroetylene] | 100%
CCCN(Cc1ccc(Cl)nc1)C(N)=C[N+](=O)[O-] [Compound 75, 1-Amino-1-[N-(6-chloro-3-pyridylmethyl)-N-n-propyl]-amino-2-nitroethylene] | 100%
CN(C=O)C(=C[N+](=O)[O-])N(C)Cc1ccc(Cl)nc1 [Compound 110, 1-[N-(6-Chloro-3-pyridylmethyl)-N-methyl]amino-1-(N-formyl-N-methyl)amino-2-nitroethylene] | 100%
CCN(Cc1ccc(Br)nc1)C(=C[N+](=O)[O-])NC [Compound 101, 1-[N-(6-Bromo-3-pyridylmethyl)-N-ethyl]amino-1-methylamino-2-nitroethylene] | 100%
CCN(Cc1ccc(Cl)nc1)C(=C[N+](=O)[O-])N(C)C=O [Compound 111, 1-[N-(6-Chloro-3-pyridylmethyl)-N-ethyl]amino-1-(N-formyl-N-methyl)amino-2-nitroethylene] | 100%
CCOC(=O)C(=C(NC)NCc1ccc(Cl)nc1)[N+](=O)[O-] [Compound 116, 1-(6-Chloro-3-pyridylmethyl)amino-1-methylamino-2-ethoxycarbonyl-2-nitroethylene] | 100%

Same assay, conditions: Nilaparvata lugens, foliar, 168 h; emulsifiable concentrate diluted with water to 500 ppm, sprayed on rice seedlings (2-leaf stage), 10 ml per paper pot; 10 larvae per tube; 25° C.; dead insects counted 7 days after release; read-out: % Mortality after 7 days

Structure (SMILES) | mortality at 500 µg/mL
CNC(=C[N+](=O)[O-])N(Cc1cccnc1)OC [Compound 64, 1-[N-methoxy-N-(3-pyridylmethyl)]amino-1-methyl-amino-2-nitroethylene] | 100%
CNC(=C[N+](=O)[O-])N(C)c1ccc(Cl)nc1 [Compound 78, 1-[N-(6-Chloro-3-pyridyl)-N-methyl]amino-1-methyl-amino-2-nitroethylene] | 100%
CNC(=C[N+](=O)[O-])N(C)Cc1cncc(Br)c1 [Compound 86, 1-[N-(5-Bromo-3-pyridylmethyl)-N-methyl]amino-1-methylamino-2-nitroethylene] | 100%
COCCNC(=C[N+](=O)[O-])N(C)Cc1cccnc1 [Compound 67, 1-(2-Methoxyethyl)amino-1-[N-methyl-N-(3-pyridylmethyl)]amino-2-nitroethylene] | 100%
CN(C)C(=C[N+](=O)[O-])NCc1ccc(Cl)cc1 [Compound 71, 1-(4-Chlorobenzyl)amino-1-dimethylamirxo-2-nitroethylene] | 100%
CCNC(=C[N+](=O)[O-])N(C)c1ccc(Cl)nc1 [Compound 85, 1-[N-(6-chloro-3-pyridyl)-N-methyl]amino-1-ethyl-amino-2-nitroethylene] | 100%
CNC(=C[N+](=O)[O-])N(C)Cc1cscn1 [Compound 88, 1-Methylamino-1-[N-methyl-N-(4-thiazolyl)methyl]-amino-2-nitroethylene] | 100%
O=[N+]([O-])C=C(NCc1cccnc1)N1CCCC1 [Compound 20, 1-(3-Pyridylmethyl)amino-1-pyrrolidino-2-nitroethylene] | 100%
CCNC(=C[N+](=O)[O-])N(CC)c1ccc(Cl)nc1 [Compound 93, 1-[N-(6-Chloro-3-pyridyl)-N-ethyl]amino-1-ethyl-amino-2-nitroethylene] | 100%
CNC(=C[N+](=O)[O-])N(C)Cc1ccncc1 [Compound 62, 1-Methylamino-1-[N-methyl-N-(4-pyridylmethyl)]-amino-2-nitroethylene] | 100%
C=CCNC(=C[N+](=O)[O-])NCc1cccnc1 [Compound 7, 1-Allylamino-1-(3-pyridylmethyl)amino-2-nitroethylene] | 100%

Same assay, conditions: emulsifiable concentrate diluted with water to 500 ppm, sprayed on rice seedlings (2-leaf stage), 10 ml per paper pot; 10 larvae per tube; 25° C.; dead insects counted 7 days after release

Structure (SMILES) | % Mortality after 7 days
CNC(=C[N+](=O)[O-])N(Cc1cccnc1)CC(OC)OC [Compound 32, 1-[N-(2-Dimethoxyethyl)-N-(3-pyridylmethyl)]amino-1-methylamino-2-nitroethylene] | 100%
COCCNC(=C[N+](=O)[O-])NCc1cccnc1 [Compound 14, 1-(2-Methoxyethyl)amino-1-(3-pyridylmetyl)amino-2-nitroethylene] | 100%
CNC(=C[N+](=O)[O-])N(C)C(C)c1cccnc1 (centres unmarked) [Compound 40, 1-Metylamino-1-[N-methyl-N-[1-(3-pyridyl)ethyl]]amino-2-nitroethylene] | 100%
CN(Cc1cccnc1)C(N)=C[N+](=O)[O-] [Compound 25, 1-Amino-1-(N-methyl-N-3-pyridylmethyl)amino-2-nitroethylene] | 100%
CCCCNC(=C[N+](=O)[O-])N(C)Cc1cccnc1 [Compound 34, 1-n-Butylamino-1-[N-methyl-N-(3-pyridylmethyl)]amino-2-nitroethylene] | 100%
CC(C)NC(=C[N+](=O)[O-])N(C)Cc1cccnc1 [Compound 37, 1-iso-Propylamino-1-[N-methyl-N-(3-pyridylmethyl)]-amino-2-nitroethylene] | 100%
CN(Cc1ccc(Cl)nc1)C(N)=C[N+](=O)[O-] [Compound 45, 1-Amino-1-[N-(6-chloro-3-pyridylmethyl)-N-methyl]-amino-2-nitroethylene] | 100%
CN(Cc1cccnc1)C(=C[N+](=O)[O-])NCc1ccccc1 [Compound 38, 1-Benzylamino-1-[N-methyl-N-(3-pyridylmethyl)l]amino-2-nitroethylene] | 100%
CNC(=C[N+](=O)[O-])N(Cc1ccccc1)Cc1cccnc1 [Compound 44, 1-[N-Benzyl-N-(3-pyridylmethyl)]amino-1-methylamino-2-nitroethylene] | 100%
CNC(=C[N+](=O)[O-])N(Cc1cccnc1)N(C)C [Compound 41, 1-[2,2-Dimethyl-1-(3-pyridylmethyl)]hydrazino-1-methylamino-2-nitroethylene] | 100%
CNC(=C[N+](=O)[O-])N(C)Cc1ccc(Cl)nc1 [Compound 29, 1-[N-(6-Chloro-3-pyridylmethyl)-N-methyl]amino-1-methylamino-2-nitroethylene] | 100%
CCCCN(C(=C[N+](=O)[O-])NC)c1cccnc1 [Compound 43] | 100%
